Drawing on patent EP4806898A1, “HETEROARYL DERIVATIVE COMPOUND AND USE THEREOF” (Voronoi Inc., priority 2023, dated 2025), this text covers ΔTm and GI50 for 17 compounds.

One experiment addresses T1, recombinant USP1 protein (Homo sapiens, UniProt O94782, DEL125-138/DEL229-408/DEL608-737).
T1 sequence (O94782 with tags, fused parts or gaps DEL125-138/DEL229-408/DEL608-737): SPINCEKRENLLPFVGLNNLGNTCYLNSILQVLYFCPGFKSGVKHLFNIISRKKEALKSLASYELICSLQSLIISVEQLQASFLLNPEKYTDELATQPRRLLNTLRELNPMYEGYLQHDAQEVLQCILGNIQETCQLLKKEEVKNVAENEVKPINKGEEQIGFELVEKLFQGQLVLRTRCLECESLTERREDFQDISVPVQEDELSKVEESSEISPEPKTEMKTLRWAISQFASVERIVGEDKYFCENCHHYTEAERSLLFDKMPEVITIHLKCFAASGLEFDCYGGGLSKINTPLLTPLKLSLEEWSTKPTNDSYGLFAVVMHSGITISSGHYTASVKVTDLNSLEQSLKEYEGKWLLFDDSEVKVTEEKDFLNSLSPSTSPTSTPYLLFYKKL
Nature of the experiment: Binding affinity to recombinant USP1 protein by differential scanning fluorimetry. Particulars: read-out: ΔTm (°C). The essentials:
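USP1 (Δ1-66, Δ125-138, Δ229-408, Δ608-737) at 0.03 mg/mL with dye in 50 mM Tris-HCl pH 8.0, 150 mM NaCl, 2% glycerol, 1 mM DTT; compounds at 100 µM final. Tm read on real-time PCR instrument; ΔTm = Tm with compound minus Tm with DMSO.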
A general note: Differential scanning fluorimetry follows unfolding on heating by fluorescence.

The subject of the next experiment is UWB1.289 cells. Nature of the experiment: Cell proliferation inhibitory activity in BRCA1/2-mutant or HRD-positive cells (Cell Titer-Glo). Particulars: read-out: GI50 UWB1.289 BRCA1 mut. The experiment is classed as cell-based. As to the method: <Experimental Example 2> Evaluation of Cell Proliferation Inhibitory Activity in BRCA1/2-Mutant or HRD-Positive Cells
To evaluate the inhibitory activity of the compound according to the present invention on the proliferation of BRCA1/2 mutants or homologous recombination deficient (HRD) positive cell lines, the following experiments were performed. UWB1.289 cells were cultured in medium (50% MEBM + 50% RPMI1640), and 1,000 cells were seeded in a well plate (black clear bottom 96-well plate, Corning) 16 to 24 hours prior to compound treatment. The compounds were diluted in dimethyl sulfoxide (3-fold serial dilution starting at 10 µM, for a total of 10 concentrations) and injected at 1 µl per well, resulting a final concentration range of […] to 10 µM. Measurements of live cells were performed by a reaction in a 37 °C and CO2 incubator for 144 hours after compound treatment. The cells were incubated for 10 minutes in an incubator using Cell Titer-Glo luminescent cell-viability reagent (Promega), and luminescence intensity thereof was measured using a reader (SynergyNeo2, Biotek). GI50 values were calculated using the GraphPad Prism version 8.4.3 (GraphPad software Inc., San Diego) program.

Where [1] appears, read: compound 100 µM, 0.03 mg/mL USP1 (Δ1-66, Δ125-138, Δ229-408, Δ608-737), Tm with compound minus Tm with DMSO.
The mark [2] stands for this setting: UWB1289, UWB1.289 cells, 144 hours after compound treatment, Cell Titer-Glo, 1.5 nM to 10 µM.

The structures appear in SMILES notation. Where two headings read alike, the source gives them in different places.

The ΔTm is the shift of the melting midpoint relative to a reference. Usually GI50 stands for the concentration giving 50% growth inhibition. `COc1ncnc(C2CC2)c1-c1ncc2cc(C(=O)NCCF)n(Cc3ccc(-c4nc(C(F)(F)F)cn4C(C)C)cc3)c2n1` [Example 21, 2-(4-cyclopropyl-6-methoxypyrimidin-5-yl)-N-(2-fluoroethyl)-7-(4-(1-isopropyl-4-(trifluoromethyl)-1H-imidazol-2-yl)benzyl)-7H-pyrrolo[2,3-d]pyrimidine-6-carboxamide]: on recombinant USP1 protein, the ΔTm at 100 µM was greater than 5 °C. Moreover, the GI50 in the experiment with UWB1.289 cells (UWB1289, 144 h) is less than 100 nM.
`COc1ncnc(C2CC2)c1-c1ncc2cc(C(=O)NCC#N)n(Cc3ccc(-c4nc(C(F)(F)F)cn4C(C)C)cc3)c2n1` [Example 22, N-(cyanomethyl) - 2-(4-cyclopropyl-6-methoxypyrimidin-5-yl)-7-(4-(1-isopropyl-4-(trifluoromethyl)-1H-imidazol-2-yl)benzyl)-7H-pyrrolo[2,3-d]pyrimidine-6-carboxamide]: on recombinant USP1 protein (setting [1]), the ΔTm at 100 µM is greater than 5 °C. In addition, in the experiment with UWB1.289 cells (setting [2]), the GI50 is less than 100 nM.
Take `COC[C@H](C)NC(=O)c1cc2cnc(-c3c(OC)ncnc3C3CC3)nc2n1Cc1ccc(-c2nc(C(F)(F)F)cn2C(C)C)cc1` [Example 23, (S)-2-(4-cyclopropyl-6-methoxypyrimidin-5-yl)-7-(4-(1-isopropyl-4-(trifluoromethyl)-1H-imidazol-2-yl)benzyl)-N-(1-methoxypropan-2-yl)-7H-pyrrolo[2,3-d]pyrimidine-6-carboxamide]: the ΔTm at 100 µM on recombinant USP1 protein (setting [1]) was greater than 5 °C. Besides, the concentration for 50% growth inhibition (GI50) with UWB1.289 cells (setting [2]) was less than 100 nM.
On to `COc1ncnc(C2CC2)c1-c1ncc2cc(C(=O)N3CCN(C)CC3)n(Cc3ccc(-c4nc(C(F)(F)F)cn4C(C)C)cc3)c2n1` [Example 24, (2-(4-cyclopropyl-6-methoxypyrimid in-5-yl)-7-(4-(1-isopropyl-4-(trifluoromethyl)-1H-imidazol-2-yl)benzyl)-7H-pyrrolo[2,3-d]pyrimidin-6-yl) (4-methylpiperazi n-1-yl)methanone], for which the ΔTm at 100 µM at recombinant USP1 protein (setting [1]) is greater than 5 °C. Also, the GI50 in the experiment on UWB1.289 cells (setting [2]) was less than 100 nM.
As for `COc1ncnc(C2CC2)c1-c1ncc2cc(C(=O)N3CCN(C4COC4)CC3)n(Cc3ccc(-c4nc(C(F)(F)F)cn4C(C)C)cc3)c2n1` [Example 25, (2-(4-cyclopropyl-6-methoxypyrimid in-5-yl)-7-(4-(1-isopropyl-4-(trifluoromethyl)-1H-imidazol-2-yl)benzyl)-7H-pyrrolo[2,3-d]pyrimidin-6-yl) (4-(oxetan-3-yl)piperazin-1-yl)methanone], the ΔTm at 100 µM on recombinant USP1 protein (setting [1]) is greater than 5 °C. For the same compound, the concentration for 50% growth inhibition (GI50) in the experiment with UWB1.289 cells (setting [2]) is less than 100 nM.
Take `CNCCN(C)C(=O)c1cc2cnc(-c3c(OC)ncnc3C3CC3)nc2n1Cc1ccc(-c2nc(C(F)(F)F)cn2C(C)C)cc1` [Example 26, 2-(4-cyclopropyl-6-methoxypyrimidin-5-yl)-7-(4-(1-isopropyl-4-(trifluoromethyl)-1H-imidazol-2-yl)benzyl)-N-methyl-N-(2-(methylamino)ethyl)-7H-pyrrolo[2,3-d]pyrimidine-6-carboxamide]: the ΔTm at 100 µM on recombinant USP1 protein (setting [1]) was greater than 5 °C. In addition, the GI50 with UWB1.289 cells (setting [2]) is less than 100 nM.
Consider `COc1ncnc(C2CC2)c1-c1ncc2cc(C(=O)Nc3cccc4ccccc34)n(Cc3ccc(-c4nc(C(F)(F)F)cn4C(C)C)cc3)c2n1` [Example 28, 2-(4-cyclopropyl-6-methoxypyrimidin-5-yl)-7-(4-(1-isopropyl-4-(trifluoromethyl)-1H-imidazol-2-yl)benzyl)-N-(naphthalen-1-yl)-7H-pyrrolo[2,3-d]pyrimidine-6-carboxamide], for which the thermal shift (ΔTm) at 100 µM on recombinant USP1 protein (setting [1]) was greater than 5 °C. Further, the GI50 with UWB1.289 cells (setting [2]) is less than 100 nM.
Take `COc1ncnc(C2CC2)c1-c1ncc2cc(C(=O)NCC(C)=O)n(Cc3ccc(-c4nc(C(F)(F)F)cn4C(C)C)cc3)c2n1` [Example 29, 2-(4-cyclopropyl-6-methoxypyrimidin-5-yl)-7-(4-(1-isopropyl-4-(trifluoromethyl)-1H-imidazol-2-yl)benzyl)-N-(2-oxopropyl)-7H-pyrrolo[2,3-d]pyrimidine-6-carboxamide]: at recombinant USP1 protein (setting [1]), the ΔTm at 100 µM was greater than 5 °C. Besides, in the experiment on UWB1.289 cells (setting [2]), the GI50 is less than 100 nM.
On the same counts, the results for `COc1ncnc(C2CC2)c1-c1ncc2cc(C(=O)Nc3cnn(C)c3)n(Cc3ccc(-c4nc(C(F)(F)F)cn4C(C)C)cc3)c2n1` [Example 30, 2-(4-cyclopropyl-6-methoxypyrimidin-5-yl)-7-(4-(1-isopropyl-4-(trifluoromethyl)-1H-imidazol-2-yl)benzyl)-N-(1-methyl-1H-pyrazol-4-yl)-7H-pyrrolo[2,3-d]pyrimidine-6-carboxamide] are greater than 5 °C and less than 100 nM.
For the compound `COc1ncnc(C2CC2)c1-c1ncc2cc(C(=O)Nc3nccs3)n(Cc3ccc(-c4nc(C(F)(F)F)cn4C(C)C)cc3)c2n1` [Example 31, 2-(4-cyclopropyl-6-methoxypyrimidin-5-yl)-7-(4-(1-isopropyl-4-(trifluoromethyl)-1H-imidazol-2-yl)benzyl)-N-(thiazol-2-yl)-7H-pyrrolo[2,3-d]pyrimidine-6-carboxamide], the ΔTm at 100 µM at recombinant USP1 protein (setting [1]) was greater than 5 °C. Further, the GI50 in the experiment on UWB1.289 cells (setting [2]) was 100 to 500 nM.
For the compound `COc1ncnc(C2CC2)c1-c1ncc2cc(C(N)=O)n(Cc3ccc(-c4nc(C(F)(F)F)cn4C(C)C)cc3)c2n1` [Example 32, 2-(4-cyclopropyl-6-methoxypyrimidin-5-yl)-7-(4-(1-isopropyl-4-(trifluoromethyl)-1H-imidazol-2-yl)benzyl)-7H-pyrrolo[2,3-d]pyrimidine-6-carboxamide], the ΔTm at 100 µM at recombinant USP1 protein (setting [1]) is greater than 5 °C. Moreover, the GI50 in the experiment with UWB1.289 cells (setting [2]) was less than 100 nM.
With `COc1ncnc(C2CC2)c1-c1ncc2cc(C(=O)NCCCN(C)C)n(Cc3ccc(-c4nc(C(F)(F)F)cn4C(C)C)cc3)c2n1` [Example 33], the ΔTm at 100 µM at recombinant USP1 protein (setting [1]) was greater than 5 °C. Further, the GI50 in the experiment with UWB1.289 cells (setting [2]) is less than 100 nM.
Take `COc1ncnc(C2CC2)c1-c1ncc2cc(C(=O)NCCC(F)(F)F)n(Cc3ccc(-c4nc(C(F)(F)F)cn4C(C)C)cc3)c2n1` [Example 34, 2-(4-cyclopropyl-6-methoxypyrimidin-5-yl)-7-(4-(1-isopropyl-4-(trifluoromethyl)-1H-imidazol-2-yl)benzyl)-N-(3,3,3-trifluoropropyl)-7H-pyrrolo[2,3-d]pyrimidine-6-carboxamide]: the ΔTm at 100 µM at recombinant USP1 protein (setting [1]) is greater than 5 °C. In addition, in the experiment with UWB1.289 cells (setting [2]), the GI50 lay in the range of 100 to 500 nM.
In the case of `COc1ncnc(C2CC2)c1-c1ncc2cc(C(=O)N3CC4(COC4)C3)n(Cc3ccc(-c4nc(C(F)(F)F)cn4C(C)C)cc3)c2n1` [Example 35, (2-(4-cyclopropyl-6-methoxypyrimid in-5-yl)-7-(4-(1-isopropyl-4-(trifluoromethyl)-1H-imidazol-2-yl)benzyl)-7H-pyrrolo[2,3-d]pyrimidin-6-yl) (2-oxa-6-azaspiro[3.3]heptan-6-yl)methanone], the thermal shift (ΔTm) at 100 µM on recombinant USP1 protein (setting [1]) was greater than 5 °C. The GI50 in the experiment on UWB1.289 cells (setting [2]) is less than 100 nM.
In the case of `COc1ncnc(C2CC2)c1-c1ncc2cc(C(=O)NC3CNC3)n(Cc3ccc(-c4nc(C(F)(F)F)cn4C(C)C)cc3)c2n1` [Example 36, N-(azetidin-3-yl)-2-(4-cyclopropyl-6-methoxypyrimidin-5-yl)-7-(4-(1-isopropyl-4-(trifluoromethyl)-1H-imidazol-2-yl)benzyl)-7H-pyrrolo[2,3-d]pyrimidine-6-carboxamide], on recombinant USP1 protein (setting [1]), the ΔTm at 100 µM is greater than 5 °C. The GI50 with UWB1.289 cells (setting [2]) is 100 to 500 nM.
For the compound `CCCNC(=O)c1cc2cnc(-c3c(OC)ncnc3C3CC3)nc2n1Cc1ccc(-c2nc(C(F)(F)F)cn2C(C)C)cc1` [Example 37, 2-(4-cyclopropyl-6-methoxypyrimidin-5-yl)-7-(4-(1-isopropyl-4-(trifluoromethyl)-1H-imidazol-2-yl)benzyl)-N-propyl-7H-pyrrolo[2,3-d]pyrimidine-6-carboxamide], the ΔTm at 100 µM on recombinant USP1 protein (setting [1]) is greater than 5 °C. Further, the GI50 in the experiment on UWB1.289 cells (setting [2]) is less than 100 nM.
Turning to `COc1ncnc(C2CC2)c1-c1ncc2cc(C(=O)N(C)CCN(C)C)n(Cc3ccc(-c4nc(C(F)(F)F)cn4C(C)C)cc3)c2n1` [Example 38, 2-(4-cyclopropyl-6-methoxypyrimidin-5-yl)-N-(2-(dimethylamino)ethyl)-7-(4-(1-isopropyl-4-(trifluoromethyl)-1H-imidazol-2-yl)benzyl)-N-methyl-7H-pyrrolo [2,3-d]pyrimidine-6-carboxamide], the ΔTm at 100 µM at recombinant USP1 protein (setting [1]) was greater than 5 °C. The 50% growth inhibitory concentration (GI50) in the experiment on UWB1.289 cells (setting [2]) is less than 100 nM.
